Reference: ChEMBL document CHEMBL3885861, “Open TG-GATES”

Species: Rattus norvegicus
Experiment: Open TG-GATES - Regimen: Single
Format: toxicity, organism-based, Sprague-Dawley
Parameters: regimen Single, gender Male, age 6 weeks
Settings: in vivo, po, route gavage; for Bas / Eos / Hb / Ht / Lym / MCH / MCHC / MCV / Mono / Neu / Plat / RBC / Ret / WBC: tissue Blood; for KIDNEY_L / KIDNEY_R / KIDNEY_TOTAL: tissue Kidney; for LIVER: tissue Liver; for A/G / ALP / ALT / AST / BUN / CRE / Ca / Cl / DBIL / GLC / IP / K / LDH / Na / PL / RALB / TBIL / TC / TG / TP / gamma-GTP: tissue Plasma
[1] = 30 mg/kg, 3 h, dose level Middle
[2] = 30 mg/kg, 6 h, dose level Middle
[3] = 30 mg/kg, 9 h, dose level Middle
[4] = 30 mg/kg, 24 h, dose level Middle
[5] = 100 mg/kg, 3 h, dose level High
[6] = 100 mg/kg, 6 h, dose level High
[7] = 100 mg/kg, 9 h, dose level High
[8] = 100 mg/kg, 24 h, dose level High

Cc1ccc2cc3c(ccc4ccccc43)c3c2c1CC3 [3-METHYLCHOLANTHRENE]
TERMINAL_BW [1]: 211.6 g
Bas [1]: 0%
Eos [1]: 0.8%
Hb [1]: 12.5 g/dL
Ht [1]: 38.3%
Lym [1]: 73.4%
MCH [1]: 20.6 pg
MCHC [1]: 32.6%
MCV [1]: 63.1 fL
Mono [1]: 3.6%
Neu [1]: 21.4%
Plat [1]: 120.7 x10_4/uL
RBC [1]: 607.4 x10_4/ul
Ret [1]: 10.1%
WBC [1]: 93.9 x10_2/uL
KIDNEY_L [1]: 0.9 g
KIDNEY_R [1]: 0.9 g
KIDNEY_TOTAL [1]: 1.8 g
LIVER [1]: 9.5 g
A/G [1]: 1
ALP [1]: 1634.6 IU/L
ALT [1]: 41.6 IU/L
AST [1]: 76 IU/L
BUN [1]: 12.6 mg/dL
CRE [1]: 0.1 mg/dL
Ca [1]: 10.9 mg/dL
Cl [1]: 103.3 meq/L
DBIL [1]: 0 mg/dL
GLC [1]: 177.4 mg/dL
IP [1]: 8.2 mg/dL
K [1]: 4.2 meq/L
LDH [1]: 224.4 IU/L
Na [1]: 139.9 meq/L
PL [1]: 185.8 mg/dL
RALB [1]: 2.9 g/dL
TBIL [1]: 0.008 mg/dL
TC [1]: 87.2 mg/dL
TG [1]: 201.5 mg/dL
TP [1]: 5.7 g/dL
gamma-GTP [1]: 0.6 IU/L
TERMINAL_BW [2]: 206.2 g
Bas [2]: 0%
Eos [2]: 0%
Hb [2]: 12.9 g/dL
Ht [2]: 39.5%
Lym [2]: 77.6%
MCH [2]: 20.7 pg
MCHC [2]: 32.7%
MCV [2]: 63.5 fL
Mono [2]: 3.6%
Neu [2]: 17.2%
Plat [2]: 124.3 x10_4/uL
RBC [2]: 622.8 x10_4/ul
Ret [2]: 9%
WBC [2]: 124.3 x10_2/uL
KIDNEY_L [2]: 0.9 g
KIDNEY_R [2]: 0.9 g
KIDNEY_TOTAL [2]: 1.8 g
LIVER [2]: 9 g
A/G [2]: 1
ALP [2]: 1407.6 IU/L
ALT [2]: 35 IU/L
AST [2]: 66 IU/L
BUN [2]: 9 mg/dL
CRE [2]: 0.1 mg/dL
Ca [2]: 10.7 mg/dL
Cl [2]: 104.4 meq/L
DBIL [2]: 0 mg/dL
GLC [2]: 169 mg/dL
IP [2]: 8.9 mg/dL
K [2]: 4.3 meq/L
LDH [2]: 174.6 IU/L
Na [2]: 140.3 meq/L
PL [2]: 158.2 mg/dL
RALB [2]: 2.9 g/dL
TBIL [2]: 0.008 mg/dL
TC [2]: 80.8 mg/dL
TG [2]: 101.9 mg/dL
TP [2]: 5.7 g/dL
gamma-GTP [2]: 0.7 IU/L
TERMINAL_BW [3]: 206.5 g
Bas [3]: 0%
Eos [3]: 0.6%
Hb [3]: 12.7 g/dL
Ht [3]: 39.4%
Lym [3]: 73.2%
MCH [3]: 20.7 pg
MCHC [3]: 32.2%
MCV [3]: 64.3 fL
Mono [3]: 3.6%
Neu [3]: 21.6%
Plat [3]: 127.5 x10_4/uL
RBC [3]: 612.8 x10_4/ul
Ret [3]: 9.1%
WBC [3]: 119.4 x10_2/uL
KIDNEY_L [3]: 0.9 g
KIDNEY_R [3]: 0.9 g
KIDNEY_TOTAL [3]: 1.8 g
LIVER [3]: 8.6 g
A/G [3]: 1
ALP [3]: 1625.8 IU/L
ALT [3]: 34.6 IU/L
AST [3]: 64.2 IU/L
BUN [3]: 10.4 mg/dL
CRE [3]: 0.1 mg/dL
Ca [3]: 10.5 mg/dL
Cl [3]: 103.9 meq/L
DBIL [3]: 0.002 mg/dL
GLC [3]: 178.4 mg/dL
IP [3]: 10.2 mg/dL
K [3]: 4.5 meq/L
LDH [3]: 153.6 IU/L
Na [3]: 141.7 meq/L
PL [3]: 160 mg/dL
RALB [3]: 2.8 g/dL
TBIL [3]: 0.004 mg/dL
TC [3]: 84 mg/dL
TG [3]: 109.2 mg/dL
TP [3]: 5.6 g/dL
gamma-GTP [3]: 0.8 IU/L
TERMINAL_BW [4]: 216.2 g
Bas [4]: 0%
Eos [4]: 0.2%
Hb [4]: 12.6 g/dL
Ht [4]: 38.1%
Lym [4]: 80.6%
MCH [4]: 20.6 pg
MCHC [4]: 32.9%
MCV [4]: 62.6 fL
Mono [4]: 3.8%
Neu [4]: 14.2%
Plat [4]: 127.8 x10_4/uL
RBC [4]: 608 x10_4/ul
Ret [4]: 8%
WBC [4]: 107.4 x10_2/uL
KIDNEY_L [4]: 0.9 g
KIDNEY_R [4]: 0.9 g
KIDNEY_TOTAL [4]: 1.9 g
LIVER [4]: 11 g
A/G [4]: 1
ALP [4]: 2072.4 IU/L
ALT [4]: 41.2 IU/L
AST [4]: 77.2 IU/L
BUN [4]: 13.7 mg/dL
CRE [4]: 0.1 mg/dL
Ca [4]: 10.9 mg/dL
Cl [4]: 103.4 meq/L
DBIL [4]: 0 mg/dL
GLC [4]: 173.8 mg/dL
IP [4]: 7.1 mg/dL
K [4]: 4.7 meq/L
LDH [4]: 281.4 IU/L
Na [4]: 141.5 meq/L
PL [4]: 165.2 mg/dL
RALB [4]: 2.8 g/dL
TBIL [4]: 0.004 mg/dL
TC [4]: 82.6 mg/dL
TG [4]: 152.7 mg/dL
TP [4]: 5.5 g/dL
gamma-GTP [4]: 0.9 IU/L
TERMINAL_BW [5]: 211 g
Bas [5]: 0%
Eos [5]: 1%
Hb [5]: 12.4 g/dL
Ht [5]: 38.7%
Lym [5]: 74.4%
MCH [5]: 20.1 pg
MCHC [5]: 32.2%
MCV [5]: 62.6 fL
Mono [5]: 3.2%
Neu [5]: 21%
Plat [5]: 125.2 x10_4/uL
RBC [5]: 618.4 x10_4/ul
Ret [5]: 9.2%
WBC [5]: 117.6 x10_2/uL
KIDNEY_L [5]: 0.9 g
KIDNEY_R [5]: 0.9 g
KIDNEY_TOTAL [5]: 1.8 g
LIVER [5]: 9.5 g
A/G [5]: 1
ALP [5]: 1507 IU/L
ALT [5]: 44.4 IU/L
AST [5]: 77.4 IU/L
BUN [5]: 12.9 mg/dL
CRE [5]: 0.1 mg/dL
Ca [5]: 10.8 mg/dL
Cl [5]: 101.9 meq/L
DBIL [5]: 0.002 mg/dL
GLC [5]: 180.4 mg/dL
IP [5]: 8.7 mg/dL
K [5]: 4.3 meq/L
LDH [5]: 276.8 IU/L
Na [5]: 139.4 meq/L
PL [5]: 178.2 mg/dL
RALB [5]: 2.9 g/dL
TBIL [5]: 0.012 mg/dL
TC [5]: 89.8 mg/dL
TG [5]: 164.2 mg/dL
TP [5]: 5.7 g/dL
gamma-GTP [5]: 0.7 IU/L
TERMINAL_BW [6]: 206.7 g
Bas [6]: 0%
Eos [6]: 0.2%
Hb [6]: 12.6 g/dL
Ht [6]: 38.9%
Lym [6]: 75.6%
MCH [6]: 20.6 pg
MCHC [6]: 32.4%
MCV [6]: 63.6 fL
Mono [6]: 4.2%
Neu [6]: 18.8%
Plat [6]: 136.5 x10_4/uL
RBC [6]: 612 x10_4/ul
Ret [6]: 9%
WBC [6]: 135.9 x10_2/uL
KIDNEY_L [6]: 0.9 g
KIDNEY_R [6]: 0.9 g
KIDNEY_TOTAL [6]: 1.7 g
LIVER [6]: 8.9 g
A/G [6]: 1
ALP [6]: 1605.4 IU/L
ALT [6]: 37.2 IU/L
AST [6]: 71.4 IU/L
BUN [6]: 8.3 mg/dL
CRE [6]: 0.1 mg/dL
Ca [6]: 10.6 mg/dL
Cl [6]: 104.8 meq/L
DBIL [6]: 0.002 mg/dL
GLC [6]: 175.4 mg/dL
IP [6]: 9.2 mg/dL
K [6]: 4.3 meq/L
LDH [6]: 203.2 IU/L
Na [6]: 141 meq/L
PL [6]: 165.6 mg/dL
RALB [6]: 2.9 g/dL
TBIL [6]: 0.022 mg/dL
TC [6]: 85.6 mg/dL
TG [6]: 83.5 mg/dL
TP [6]: 5.7 g/dL
gamma-GTP [6]: 0.8 IU/L
TERMINAL_BW [7]: 206.7 g
Bas [7]: 0%
Eos [7]: 0.6%
Hb [7]: 12.7 g/dL
Ht [7]: 39%
Lym [7]: 75.8%
MCH [7]: 20.6 pg
MCHC [7]: 32.4%
MCV [7]: 63.6 fL
Mono [7]: 3.4%
Neu [7]: 19.4%
Plat [7]: 125.7 x10_4/uL
RBC [7]: 613.8 x10_4/ul
Ret [7]: 8.6%
WBC [7]: 108.2 x10_2/uL
KIDNEY_L [7]: 0.9 g
KIDNEY_R [7]: 0.9 g
KIDNEY_TOTAL [7]: 1.8 g
LIVER [7]: 9 g
A/G [7]: 1
ALP [7]: 1396.4 IU/L
ALT [7]: 34.4 IU/L
AST [7]: 70.4 IU/L
BUN [7]: 9.8 mg/dL
CRE [7]: 0.1 mg/dL
Ca [7]: 10.6 mg/dL
Cl [7]: 104 meq/L
DBIL [7]: 0.002 mg/dL
GLC [7]: 179.4 mg/dL
IP [7]: 10.6 mg/dL
K [7]: 4.6 meq/L
LDH [7]: 248.8 IU/L
Na [7]: 142.5 meq/L
PL [7]: 150.4 mg/dL
RALB [7]: 2.8 g/dL
TBIL [7]: 0.004 mg/dL
TC [7]: 79.2 mg/dL
TG [7]: 95 mg/dL
TP [7]: 5.6 g/dL
gamma-GTP [7]: 0.6 IU/L
TERMINAL_BW [8]: 218 g
Bas [8]: 0%
Eos [8]: 0%
Hb [8]: 12.8 g/dL
Ht [8]: 39.2%
Lym [8]: 81.2%
MCH [8]: 20 pg
MCHC [8]: 32.6%
MCV [8]: 61.6 fL
Mono [8]: 3%
Neu [8]: 14.6%
Plat [8]: 124.3 x10_4/uL
RBC [8]: 636.8 x10_4/ul
Ret [8]: 8.1%
WBC [8]: 127.1 x10_2/uL
KIDNEY_L [8]: 0.9 g
KIDNEY_R [8]: 0.9 g
KIDNEY_TOTAL [8]: 1.9 g
LIVER [8]: 11.2 g
A/G [8]: 1
ALP [8]: 1595.4 IU/L
ALT [8]: 38.6 IU/L
AST [8]: 69.4 IU/L
BUN [8]: 16.7 mg/dL
CRE [8]: 0.2 mg/dL
Ca [8]: 11 mg/dL
Cl [8]: 103.1 meq/L
DBIL [8]: 0.002 mg/dL
GLC [8]: 171.4 mg/dL
IP [8]: 7.4 mg/dL
K [8]: 4.7 meq/L
LDH [8]: 188.8 IU/L
Na [8]: 141.6 meq/L
PL [8]: 181.2 mg/dL
RALB [8]: 2.8 g/dL
TBIL [8]: 0 mg/dL
TC [8]: 92 mg/dL
TG [8]: 209.4 mg/dL
TP [8]: 5.5 g/dL
gamma-GTP [8]: 0.9 IU/L
